Where “and” joins values, the source holds several entries; their conditions need not be identical. Equal values may be shown once. Entries after “also recorded” stand apart in the source; their conditions may differ.
Tests used:
[1] = test system: Crl:CD-1(ICR) BR mice; assay: Dose range finding study (mortality); type: in vivo, mouse; conditions: oral gavage
Experimental: Since no appropriate toxicity data were available (e.g., the same species, strain, route, etc.), a dose range finding study was performed using the same treatment regimen used in the micronucleus assay. Young adult male and female mice of the Crl:CD-1®(ICR) BR strain from Charles River Laboratories, Raleigh, N.C., were used in this study. Dose levels of 0, 125, 250, and 500 mg/kg were tested.

[2] = test system: polychromatic erythrocyte cells in Crl:CD-1(ICR) BR mouse bone marrow; assay: In vivo mouse micronucleus assay; conditions: for statistically significant increase in micronucleated PCEs: 31.25, 62.5 and 125 mg/kg; for signs of clinical toxicity in treated animals: mice dosed up to and including 125 mg/kg
Experimental: The objective of this study was to evaluate 14-hydroxycodeinone for in vivo clastogenic activity and/or disruption of the mitotic apparatus by detecting micronuclei in polychromatic erythrocyte cells in Crl:CD-1®(ICR) BR mouse bone marrow. The assay design was based on Organization for Economic Co-operation and Development (OECD) guideline 474, updated and adopted Jul. 21, 1997. The study was conducted in compliance with the Good Laboratory Practice regulations as set forth by the FDA.
The micronucleus test can serve as a rapid screen for clastogenic agents and test articles which interfere with normal mitotic cell division (Schmid, W., The micronucleus test. Mutat. Res. 31, 9-15, 1975; Heddle et al., The introduction of micronuclei as a measure of genotoxicity. Mutat. Res. 123, 61-118, 1983). Micronuclei are small chromatin bodies, consisting of entire chromosomes and/or acentric chromosome fragments, which lag behind at mitotic anaphase. At telophase, these multiple micronuclei are in the cytoplasm. During maturation of hematopoietic cells from erythoblasts to erythocytes, the nucleus is extruded. Micronuclei, if present, persist in the cytoplasm of these non-nucleated cells. Detection of micronuclei in non-nucleated cells eliminates the need to search for metaphase spreads in treated cell populations. Test articles affecting spindle-fiber function or formation can be detected through micronucleus induction. In this study, enucleated immature red blood cells or polychromatic erythrocytes (PCEs) were analyzed for the presence of micronuclei.
The micronucleus assay used 48 animals approximately 8 weeks old at the […], with a weight range of 28.4 to 35.3 g.
At least 2000 erythrocytes (PCEs) per animal were analyzed for the presence of […] was assessed by scoring the number of PCEs and ic erythrocytes (NCEs) in at least the first 500 erythrocytes for each […] of the micronuleus assay results is presented in the following table.

With `COc1ccc2c3c1OC1C(=O)C=C[C@@]4(O)[C@@H](C2)N(C)CC[C@]314` (some centres unmarked) [14-hydroxycodeinone] the “Number of Mice (died/total)” value ([1]; 125 mg/kg) was 0/6, the “Number of Mice (died/total)” value ([1]; 250 mg/kg) was 3 of 6 and 3/6 and the “Number of Mice (died/total)” value ([1]; 500 mg/kg) was 14 of 18 and 14/18. The “PCE:NCE mean ratio” value ([2]; 31.25 mg/kg oral gavage, harvest 24 Hours) was 0.74, the “PCE:NCE mean ratio” value ([2]; 62.5 mg/kg oral gavage, harvest 24 Hours) was 0.64 and the “PCE:NCE mean ratio” value ([2]; 125 mg/kg oral gavage, harvest 24 Hours) was 0.66. The “PCE:NCE mean ratio” value ([2]; 125 mg/kg oral gavage, harvest 48 Hours) was 0.36, the “bone marrow toxicity (PCE:NCE ratio versus control 0.60)” value ([2]; 125 mg/kg, 48-hour group, difference not statistically significant at p≦0.05) was “suggesting induced bone marrow toxicity” and the “statistically significant increase in micronucleated PCEs” value [2] was “no signs of clinical toxicity or a statistically significant increase in micronucleated PCEs”. For the same molecule, the “statistically significant increase in micronucleated PCEs” value ([2]; listed as 14-Hydroxycodeinone) was “did not induce statistically significant increases”, the “outcome of the mouse bone marrow micronucleus assay (mutagenic properties)” value ([2]; doses up to 125 mg/kg in mice) was “does not exhibit mutagenic properties; also recorded: negative” and the “signs of clinical toxicity in treated animals” value [2] was “no signs of clinical toxicity”. For the same molecule, the “signs of clinical toxicity in treated animals” value ([2]; listed as 14-hyrdroxycodeinone) was “did not induce signs of clinical” and the “cytotoxicity to the bone marrow (PCE:NCE ratios versus control)” value ([2]; treated groups overall) was “lack of cytotoxicity to the bone marrow”.

Source: patent US20070117826A1, “Pharmaceutical formulations comprising ibuprofen, oxycodone, and 14-hydroxycodeinone” (Forest Laboratories, Inc., priority 2005, published 2007)
